Patent publication US20220396565A1 (Hoffmann-La Roche Inc., priority 2020, published 2022)
Structures can show the parent of a compound that is named as a salt.

What follows are compounds tested on Acinetobacter baumannii ATCC17961 (assay: Antimicrobial susceptibility testing: 90% growth inhibitory concentration (IC90) determination, Iso-Sensitest broth). Conditions: Acinetobacter baumannii, ATCC17961, 90% growth inhibitory concentration, Acinetobacter baumannii ATCC17961, Iso-Sensitest broth; read-out: ATCC 17961 IC90.
Assay type: cell-based
Protocol: The in vitro antimicrobial activity of the compounds was determined according to the following procedure:
The assay used a 10-points Iso-Sensitest broth medium to measure quantitatively the in vitro activity of the compounds against Acinetobacter baumannii ATCC17978 or ATCC17961.
Stock compounds in DMSO were serially twofold diluted (e.g. range from 10 to 0.02 μM final concentration) in 384 wells microtiter plates and inoculated with 49 μl the bacterial suspension in Iso-Sensitest medium to have a final cell concentration of ˜5×10^(5) CFU/ml in a final volume/well of 50 ul/well. Microtiter plates were incubated at 35±2° C.
Bacterial cell growth was determined with the measurement of optical density at k=600 nm each 20 minutes over a time course of 16 h. Growth inhibition was calculated during the logarithmic growth of the bacterial cells with determination of the concentration inhibiting 50% (IC50) and 90% (IC90) of the growth.
Table 1 provides the 90% growth inhibitory concentrations (IC90) in micromoles per liter of the compounds of present invention obtained against the strain Acinetobacter baumannii ATCC17978 or ATCC17961.
COc1ccc(-c2cnc(C(=O)Nc3ccc(C(=O)N4CCN(C(=O)C5CNC(=O)N5)CC4)c(Cl)c3)n2C)c(F)c1F (stereo not shown) [Example 133, N-[3-chloro-4-[4-(2-oxoimidazolidine-4-carbonyl)piperazine-1-carbonyl]phenyl]-5-(2,3-difluoro-4-methoxy-phenyl)-1-methyl-imidazole-2-carboxamide] gave an IC90 of 170 nM.
Cn1c(-c2ccc(OCC#N)c(F)c2F)cnc1C(=O)Nc1ccc(C(=O)N2CCN(C(=O)[C@@H]3NCC[C@@H]3O)CC2)c(Cl)c1 [Example 210, N-(3-chloro-4-(4-((2R,3S)-3-hydroxypyrrolidine-2-carbonyl)piperazine-1-carbonyl)phenyl)-5-(4-(cyanomethoxy)-2,3-difluorophenyl)-1-methyl-1H-imidazole-2-carboxamide formate] was tested, and the IC90 was 60 nM.
COc1ccc(-c2cnc(C(=O)Nc3ccc(C(=O)N4CCC(C(=O)NC5CCNCC5)CC4)c(Cl)c3)n2C)c(F)c1F [Example 38, 1-[2-chloro-4-[[5-(2,3-difluoro-4-methoxy-phenyl)-1-methyl-imidazole-2-carbonyl]amino]benzoyl]-N-(4-piperidyl)piperidine-4-carboxamide formate] showed an IC90 of 60 nM.
COc1ccc(-c2cnc(C(=O)Nc3ccc(C(=O)N4CCC(NC(=O)[C@@H]5CCNC5)C4)c(Cl)c3)n2C)c(F)c1F (stereo partly drawn) [Example 109, N-[3-chloro-4-[3-[[(3R)-pyrrolidine-3-carbonyl]amino]pyrrolidine-1-carbonyl]phenyl]-5-(2,3-difluoro-4-methoxy-phenyl)-1-methyl-imidazole-2-carboxamide formate] showed an IC90 of 150 nM.
In the case of COc1ccc(-c2cnc(C(=O)Nc3ccc(C(=O)N4CCN(C(=O)CCOCCN)CC4)c(Cl)c3)n2C)c(F)c1F [Example 246, N-[4-[4-[3-(2-aminoethoxy)propanoyl]piperazine-1-carbonyl]-3-chloro-phenyl]-5-(2,3-difluoro-4-methoxy-phenyl)-1-methyl-imidazole-2-carboxamide formate], the IC90 was 100 nM.
With Cn1c(-c2ccc(OCF)c(F)c2Cl)cnc1C(=O)Nc1ccc(C(=O)N2CCC(C(=O)NC[C@@H]3CCNC3)CC2)c(Cl)c1 [Example 62, 1-[2-chloro-4-[[5-[2-chloro-3-fluoro-4-(fluoromethoxy)phenyl]-1-methyl-imidazole-2-carbonyl]amino]benzoyl]-N-[[(3R)-pyrrolidin-3-yl]methyl]piperidine-4-carboxamide formate] the IC90 was 60 nM.
With COc1ccc(-c2cnc(C(=O)Nc3ccc(C(=O)N4CCN(C(=O)[C@@H]5CCNC[C@@H]5O)CC4)c(C)c3)n2C)c(F)c1F [Example 234, 5-(2,3-difluoro-4-methoxy-phenyl)-N-[4-[4-[(3R,4R)-3-hydroxypiperidine-4-carbonyl]piperazine-1-carbonyl]-3-methyl-phenyl]-1-methyl-imidazole-2-carboxamide formate] the IC90 was 180 nM.
For COc1ccc(-c2cnc(C(=O)Nc3ccc(C(=O)N4CCC(C(=O)NCC5CCNCC5)CC4)c(Cl)c3)n2C)c(F)c1F [Example 35, 1-[2-chloro-4-[[5-(2,3-difluoro-4-methoxy-phenyl)-1-methyl-imidazole-2-carbonyl]amino]benzoyl]-N-(4-piperidylmethyl)piperidine-4-carboxamide formate], the IC90 was 60 nM.

Same assay, conditions: Acinetobacter baumannii, ATCC17961, read-out: ATCC 17961 IC90
For CNCCNC(=O)C1CCN(C(=O)c2ccc(NC(=O)c3ncc(-c4ccc(OCC#N)c(F)c4F)n3C)cc2Cl)CC1 [Example 82, 1-(2-chloro-4-(5-(4-(cyanomethoxy)-2,3-difluorophenyl)-1-methyl-1H-imidazole-2-carboxamido)benzoyl)-N-(2-(methylamino)ethyl) piperidine-4-carboxamide formate], the IC90 was 70 nM.
Work on COc1ccc(-c2cnc(C(=O)Nc3ccc(C(=O)N4CCN(C(=O)C5CCN(CCN)CC5)CC4)c(Cl)c3)n2C)c(F)c1F [Example 290, N-[4-[4-[1-(2-Aminoethyl)piperidine-4-carbonyl]piperazine-1-carbonyl]-3-chloro-phenyl]-5-(2,3-difluoro-4-methoxy-phenyl)-1-methyl-imidazole-2-carboxamide formate] yielded an IC90 of 50 nM.
